Assay results taken from ChEMBL document CHEMBL5370582, “Heterolactone and Heterolactams A-M, Verticillane Diterpenoids with Anti-Inflammatory and Hepatoprotective Activities from the Soft Coral Heteroxenia ghardaqensis” (J Nat Prod, 2023).
The source made the active and inactive calls. The rule behind the calls is not given here.

Tests used:
[1] = species: Danio rerio; test: Anti-inflammatory activity against CuSO4-induced inflammatory response in transgenic Zebrafish larvae assessed as reduction in number of macrophages at 20 uM pretreated for 2 hrs followed by CuSO4-stimulation and measured after 1 hr by fluorescence microscopy; type: functional, organism-based; settings: time 3.0 hrs
[2] = species: Danio rerio; test: Hepatoprotective activity against isoniazid/alcohol-induced liver injury in transgenic Zebrafish larvae at 50 uM incubated for 72 hrs by fluorescence microscopy; type: functional, organism-based

| Structure (SMILES) | Activity [1] | Activity [2] |
| --- | --- | --- |
| C[C@H]1CC[C@@H]2CCC3=C([C@@H](C[C@@H](C)CC(=O)C1)N(CCO)C3=O)C2(C)C | Active | Active |
| C[C@H]1CC[C@@H]2CCC3=C(C2(C)C)[C@@](O)(C[C@@H](C)CC(=O)C1)NC3=O |  | Active |
| C[C@H]1CC[C@@H]2CCC3=C(C2(C)C)[C@@](O)(C[C@@H](C)CC(=O)C1)N(CCc1ccccc1)C3=O | Active |  |
| C[S+](CC[C@H](N)C(=O)[O-])C[C@H]1O[C@@H](n2cnc3c(N)ncnc32)[C@H](O)[C@@H]1O (stereo partly drawn) |  | Active |
| C[C@H]1CC[C@@H]2CCC3=C([C@@H](C[C@@H](C)CC(=O)C1)N(CCc1ccccc1)C3=O)C2(C)C | Active |  |
| COc1ccc2c(c1)c(CC(=O)O)c(C)n2C(=O)c1ccc(Cl)cc1 | Active |  |
| CC(C)CCN1C(=O)[C@@]2(C)CC[C@H]3CC[C@H](C)CC(=O)C[C@H](C)/C=C\1[C@]2(O)C3(C)C |  | Active |
